Assay results reported in patent US10233192B2, “Derivatives of uncialamycin, methods of synthesis and their use as antitumor agents” (priority 2013, dated 2019).
Where two headings read alike, the source gives them in different places.

Key:
[1] = test system: ADR multi-drug resistant breast cancer cell line; assay: ATP luminescence (CellTiter-Glo) cell viability assay, ADR; assay type: cell-based; details: 72 h, read-out: EC50 (nM) ADR
Method: (§1) An ATP luminescence assay was used, the procedure being as follows: Cells were seeded at 1×10^3 cells/well in 96-well plates for 3 h for ATP CellTiter^Glo™ assays, respectively. Serial dilutions (1:3) of compounds were added to the wells. Plates were allowed to incubate for 72 h. A CellTiter^Glo™ cell viability kit from Promega was used to measure ATP content of cells treated with compounds following manufacturer's instruction. A decrease in the ATP content is a measure of decrease in cellular viability. The EC50 value—the concentration at which an agent reduces cell viability by 50% of the maximum effect—was determined using PRISM™ software, version 5.0 (GraphPad Software, La Jolla, Calif., USA).
(§2) The compounds were tested against ADR, a multi-drug resistant breast cancer cell line as well as the H226, N87, and OVCAR3 cell lines.

H226 cell line = assay: ATP luminescence (CellTiter-Glo) cell viability assay, H226; assay type: cell-based; details: Homo sapiens, read-out: EC50 (nM) H226
Method: as §1, §2

N87 cell line = assay: ATP luminescence (CellTiter-Glo) cell viability assay, N87; assay type: cell-based; details: 72 h, read-out: EC50 (nM) N87
Method: as §1, §2

OVCAR3 cell line = assay: ATP luminescence (CellTiter-Glo) cell viability assay, OVCAR3; assay type: cell-based; details: Homo sapiens, read-out: EC50 (nM) OVCAR3
Method: as §1, §2

cancer cells = details: antitumor activity, Nicolaou et al. 2007, 2008; cited from earlier work
[2] = Chemical stability observed on preparation and storage; assay type: physicochemical; details: observation on handling and storage; both acid- and base-sensitive, slowly decomposed at −78° C
[3] = ADR multidrug resistant breast cancer cell line, ATP content
[4] = NCI-H226, H226, 72 h, ATP content
[5] = OVCAR-3, OVCAR3, 72 h, ATP content

Compound	EC50 [1, 3]	EC50 (H226 cell line; [4])	EC50 (N87 cell line; N87, ATP content)	EC50 (OVCAR3 cell line; [5])	stability [2]	also measured
COc1cc2c(c(OC)c1CN)C(=O)c1c(O)cc3c(c1C2=O)N[C@H]1C#C/C=C\C#C[C@@H](O)[C@@]32O[C@@]12[C@@H](C)O	0.34 nM	0.077 nM	0.15 nM	0.4 nM		
C[C@@H](O)[C@@]12O[C@]13c1cc(O)c4c(c1N[C@H]2C#C/C=C\C#C[C@H]3O)C(=O)c1ccccc1C4=O [Compound 26a, Uncialamycin]	0.39 nM	1.8 nM	1.8 nM	4.7 nM		melting point: 175 °C (dec.); IC50 (cancer cells): picomolar
C[C@@H](O)[C@@]12O[C@]13c1cc(O)c4c(c1N[C@H]2C#C/C=C\C#C[C@H]3O)C(=O)c1ccc(N)cc1C4=O [Compound 36a, 8-Amino-uncialamycin, reference compound]	0.67 nM	2.4 nM	2.7 nM	7.4 nM		
C[C@@H](O)[C@@]12O[C@]13c1cc(O)c4c(c1N[C@H]2C#C/C=C\C#C[C@H]3O)C(=O)c1ccc(CN)cc1C4=O [Compound 48aa, 8-Aminomethyl-uncialamycin]	0.02 nM	0.028 nM	0.011 nM	0.32 nM	extremely unstable	
C[C@@H](O)[C@@]12O[C@]13c1cc(O)c4c(c1N[C@H]2C#C/C=C\C#C[C@@H]3O)C(=O)c1ccc(CN)cc1C4=O [Compound 48ab]	0.054 nM	0.051 nM	0.023 nM	0.28 nM		
C[C@@H](O)[C@@]12O[C@]13c1cc(O)c4c(c1N[C@H]2C#C/C=C\C#C[C@H]3O)C(=O)c1cc(CN)ccc1C4=O [Compound 48ba, 7-Aminomethyl-uncialamycin]	0.029 nM	0.012 nM	0.01 nM	0.066 nM	extremely unstable	
C[C@@H](O)[C@@]12O[C@]13c1cc(O)c4c(c1N[C@H]2C#C/C=C\C#C[C@H]3O)C(=O)c1c(CN)cccc1C4=O [Compound 48ca, 6-Aminomethyl-uncialamycin]					extremely unstable	
C[C@@H](O)[C@@]12O[C@]13c1cc(O)c4c(c1N[C@H]2C#C/C=C\C#C[C@H]3O)C(=O)c1cccc(CN)c1C4=O [Compound 48da, 9-Aminomethyl-uncialamycin]					extremely unstable	
C[C@@H](O)[C@@]12O[C@]13c1cc(O)c4c(c1N[C@H]2C#C/C=C\C#C[C@H]3O)C(=O)c1cc2c(cc1C4=O)CNC2 [Compound 97, Isoindoline-uncialamycin 97]					extremely unstable	
CNCc1ccc2c(c1)C(=O)c1c(O)cc3c(c1C2=O)N[C@H]1C#C/C=C\C#C[C@@H](O)[C@@]32O[C@@]12[C@@H](C)O [Compound 108, N-methyl-8-aminomethyl-uncialamycin 108]					extremely unstable	
C=CCOC(=O)N1c2c(cc(O)c3c2C(=O)c2ccc(CN)cc2C3=O)[C@@]23O[C@@]2([C@@H](C)O[Si](CC)(CC)CC)[C@@H]1C#C/C=C\C#C[C@H]3O [Compound 111]					much more stable than 48aa	
CC(C)[C@H](NC(=O)CCCCCN1C(=O)C=CC1=O)C(=O)N[C@@H](CCCNC(N)=O)C(=O)Nc1ccc(COC(=O)NCc2ccc3c(c2)C(=O)c2c(O)cc4c(c2C3=O)N[C@H]2C#C/C=C\C#C[C@@H](O)[C@@]43O[C@@]23[C@@H](C)O)cc1 [Compound 116]						EC50 [1]: 3.3 nM; EC50 (H226 cell line; NCI-H226, 72 h): 4.2 nM; EC50 (N87 cell line): 8.7 nM; EC50 (OVCAR3 cell line; OVCAR-3, 72 h): 16 nM
